This is an account of results in patent publication US8796467B2, “Compounds” (Boehringer Ingelheim International GmbH, priority 2011, dated 2014).

Molecules are shown by their SMILES.

T1 sequence (P41594 21-1212): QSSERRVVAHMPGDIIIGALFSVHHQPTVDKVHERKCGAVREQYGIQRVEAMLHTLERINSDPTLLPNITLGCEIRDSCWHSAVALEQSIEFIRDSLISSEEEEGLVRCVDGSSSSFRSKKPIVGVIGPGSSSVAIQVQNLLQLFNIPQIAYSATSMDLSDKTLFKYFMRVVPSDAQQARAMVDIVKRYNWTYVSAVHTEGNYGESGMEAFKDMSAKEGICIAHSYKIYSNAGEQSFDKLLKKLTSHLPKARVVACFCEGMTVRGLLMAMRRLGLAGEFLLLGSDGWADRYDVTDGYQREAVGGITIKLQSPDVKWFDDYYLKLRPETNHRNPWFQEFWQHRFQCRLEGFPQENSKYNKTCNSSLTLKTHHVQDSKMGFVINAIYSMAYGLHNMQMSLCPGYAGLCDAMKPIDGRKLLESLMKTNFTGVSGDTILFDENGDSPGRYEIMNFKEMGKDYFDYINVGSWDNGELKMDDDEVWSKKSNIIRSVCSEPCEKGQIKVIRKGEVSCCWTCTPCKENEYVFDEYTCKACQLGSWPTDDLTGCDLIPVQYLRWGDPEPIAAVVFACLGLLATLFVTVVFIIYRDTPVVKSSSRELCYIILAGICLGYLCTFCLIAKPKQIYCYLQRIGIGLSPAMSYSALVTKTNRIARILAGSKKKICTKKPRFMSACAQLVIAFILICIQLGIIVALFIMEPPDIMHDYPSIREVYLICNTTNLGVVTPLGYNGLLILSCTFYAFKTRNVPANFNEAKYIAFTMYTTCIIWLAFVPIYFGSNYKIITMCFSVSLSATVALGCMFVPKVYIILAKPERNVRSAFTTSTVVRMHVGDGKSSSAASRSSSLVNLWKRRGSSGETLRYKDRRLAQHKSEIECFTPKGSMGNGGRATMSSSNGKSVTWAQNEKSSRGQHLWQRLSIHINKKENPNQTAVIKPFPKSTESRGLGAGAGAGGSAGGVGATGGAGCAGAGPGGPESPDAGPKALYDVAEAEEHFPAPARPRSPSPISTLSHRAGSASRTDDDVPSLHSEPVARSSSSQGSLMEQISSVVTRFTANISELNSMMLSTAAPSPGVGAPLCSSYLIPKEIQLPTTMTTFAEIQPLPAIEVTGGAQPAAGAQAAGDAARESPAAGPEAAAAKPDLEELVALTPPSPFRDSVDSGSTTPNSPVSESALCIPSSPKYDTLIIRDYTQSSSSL

The test addresses T1, human recombinant mGluR5 (Homo sapiens, UniProt P41594).
T1 construct: expressed in transfected cells; hygromycin and geneticin selection, tetracycline-regulated
Nature of the test: Positive modulation of mGluR5, calcium based FLIPR assay in HEK 293 cell line. The note with it: EC50 of the modulation; HEK 293 cells expressing human recombinant mGluR5; glutamate at approximately 5% basal stimulation; peak height of Ca fluorescence signal. As for the experimental part:
The positive modulation of mGluR5 is measured in a HEK 293 cell line expressing human recombinant mGluR5 and is detected with calcium based FLIPR assay. The cells are cultured with DMEM supplemented with 10% FCS, 2 μg/mL tetracycline, 100 μg/mL hygromycin and 500 μg/mL gneticin. The cell culture media is exchanged for tetracycline-free cell culture media 3-7 days before the assay. One day before the assay the cell culture medium is exchanged to DMEM without glutamine and phenol red and supplemented with 10% FCS, 100 μg/mL hygromycin and 500 μg/mL geneticin. On the assay day, the medium of the subconfluent cultures is removed and the cells are detached by addition of 2.5 ml EDTA (0.02%) per 175 cm2 culture flask for 1 minute. The cells are resuspend in Ringer solution (140 mM NaCl, 5 mM KCl, 2.5 mM CaCl2, 1.5 mM MgCl2, 5 mM Glucose, 10 mM Hepes; adjusted to pH 7.4 with NaOH), pooled and Ringer solution added to adjust the volume to 50 mL. The cell suspension is centrifuged for 5 min at 1500 U/min (425 g). The supernatant is removed and the cells washed a second time with 50 ml fresh Ringer solution and centrifuged again as before. The supernatant is again removed and the pellet resuspended in Ringer solution to 1,000,000 cells/ml (1×10^6 cells/mL). The cells are plated onto BD BioCoat Poly-D-Lysine 384 well plates (20,000 cells/well; 20 μl/well). The lid covered plates are then incubated until use at 37° C./10% CO2. For dye loading, 20 μl of Calcium-4 assay kit solution (prepared according to the manufacturer's description in Ringer solution) are added to the cells and the plates are incubated for 80 min 37° C. and then 10 min at room temperature.
Controls, Compound Dilution and Assay Execution:
Each assay plate contained wells with “high” and “low” controls: • Low controls 1% DMSO/ringer solution+basal glutamate activation (defined as 100% CTL). • High controls 10 μM CDPPB+basal glutamate activation (defined as 200% CTL).
Test compounds are dissolved and diluted in DMSO to 100-fold the desired concentrations. In a second step, the compounds are diluted in Ringer solution such that the compounds are 4-fold more concentrated than the desired final assay concentration. The final DMSO concentration was 1%.
20 μl of each compound solution are then transferred to the assay plate and the Ca2+ kinetic is measured to determine any intrinsic compound activity. After 5 min incubation in the FLIPR device, the second stimulation with 20 μl of glutamate in Ringer solution (glutamate concentration adjusted to approximately 5% basal stimulation of the maximal possible glutamate effect) is added and the kinetic Ca2+ response of the wells was measured for the modulation effect.
The peak height of the Ca release related fluorescence signal (9-66) is used for the EC50.
The EC50 of the modulation is calculated over a nonlinear regression with GraphPad Prism (Table 1).
By EC50 is commonly meant the concentration that produces a half-maximal response. For the compound `Cc1nc2c(s1)CCN(C(=O)Cn1cc(-c3ccc(F)c(C)c3)nc1-c1ccccc1)CC2` [Example 7.01.01., 2-(4-(4-fluoro-3-methyl-phenyl)-2-phenyl-imidazol-1-yl)-1-(2-methyl-4,5,7,8-tetrahydro-thiazolo[4,5-d]azepin-6-yl)-ethanone], the EC50 is 90 nM. Consider `Cc1cc(-c2cn(CC(=O)N3CCc4nc(N)sc4CC3)c(-c3ccccc3)n2)ccc1F` [Example 7.01.02.], for which the EC50 is 224 nM.

On to `Cc1nc2c(o1)CN(C(=O)Cn1cc(-c3ccc(F)c(C)c3)nc1-c1ccccc1)CC2` [Example 7.01.03.], for which the EC50 stood at 90 nM. In the case of `Cc1nc2c(o1)CN(C(=O)Cn1cc(-c3ccc(F)c(C)c3)nc1C1CCCCC1)CC2` [Example 7.01.04.], the EC50 was determined as 885 nM. Turning to `Cc1cc(-c2cn(CC(=O)N3CCc4nc(N)sc4CC3)c(C3CCCCC3)n2)ccc1F` [Example 7.01.05.], the EC50 was 623 nM. For the compound `Cc1nc2c(s1)CCN(C(=O)Cn1cc(-c3ccc(F)c(C)c3)nc1C1CCCCC1)CC2` [Example 7.01.06.], the EC50 is 332 nM. With `Cc1nc2c(o1)CN(C(=O)Cn1cc(-c3ccc(F)cc3)nc1-c1ccccc1)CC2` [Example 7.01.07.], the EC50 is 939 nM. On to `Nc1nc2c(s1)CCN(C(=O)Cn1cc(-c3ccc(F)cc3)nc1-c1ccccc1)CC2` [Example 7.01.08.], for which the EC50 was 738 nM. The result for `Cc1nc2c(s1)CCN(C(=O)Cn1cc(-c3ccc(F)cc3)nc1-c1ccccc1)CC2` [Example 7.01.09.] reads 259 nM. On to `Cc1nc2c(s1)CCN(C(=O)Cn1cc(-c3ccc(F)c(C)c3)nc1C(C)C)CC2` [Example 7.01.10.], for which the EC50 is 854 nM.

`Cc1cc(-c2cn(CC(=O)N3CCc4nc(N)sc4CC3)c(-c3ccc(F)cc3)n2)ccc1F` [Example 7.01.11.]: the EC50 came out at 107 nM.

In the case of `Cc1nc2c(s1)CCN(C(=O)Cn1cc(-c3ccc(F)c(C)c3)nc1-c1ccc(F)cc1)CC2` [Example 7.01.12.], the EC50 was determined as 78 nM. In the case of `Cc1nc2c(o1)CN(C(=O)Cn1cc(-c3ccc(F)c(C)c3)nc1-c1ccc(F)cc1)CC2` [Example 7.01.13.] it was 40 nM; in that of `Cc1nc2c(s1)CN(C(=O)Cn1cc(-c3ccc(F)c(C)c3)nc1-c1ccc(F)cc1)C2` [Example 7.01.14.], 64 nM. Regarding `Cc1nc2c(o1)CN(C(=O)Cn1cc(-c3ccc(F)cc3)nc1-c1ccc(F)cc1)CC2` [Example 7.01.15.], the EC50 is 297 nM. Consider `Cc1nc2c(s1)CN(C(=O)Cn1cc(-c3ccc(F)cc3)nc1-c1ccc(F)cc1)C2` [Example 7.01.16.], for which the EC50 is 633 nM.

Consider `Cc1nc2c(s1)CCN(C(=O)Cn1cc(-c3ccc(F)cc3)nc1-c1ccc(F)cc1)CC2` [Example 7.01.17.], for which the EC50 was 96 nM. Take `Nc1nc2c(s1)CCN(C(=O)Cn1cc(-c3ccc(F)cc3)nc1-c1ccc(F)cc1)CC2` [Example 7.01.18.]: the EC50 is 448 nM. Turning to `Cc1cccc(-c2cn(CC(=O)N3Cc4nc(C)sc4C3)c(-c3ccccc3)n2)c1` [Example 7.01.19.], the EC50 was 574 nM. As to `Cc1cccc(-c2cn(CC(=O)N3CCc4nc(C)sc4CC3)c(-c3ccccc3)n2)c1` [Example 7.01.20.], the EC50 is 107 nM. With `Cc1cccc(-c2cn(CC(=O)N3CCc4nc(N)sc4CC3)c(-c3ccccc3)n2)c1` [Example 7.01.21.], the EC50 was found to be 275 nM. For the compound `Cc1cccc(-c2cn(CC(=O)N3CCc4nc(C)oc4C3)c(-c3ccccc3)n2)c1` [Example 7.01.22.], the EC50 was 250 nM.

Consider `Cc1cc(-c2cn(CC(=O)N3CCN(c4cccc(C#N)c4)C(=O)C3)c(-c3ccc(F)cc3)n2)ccc1F` [Example 7.01.23], for which the EC50 came out at 431 nM. In the case of `COc1cccc(N2CCN(C(=O)Cn3cc(-c4ccc(F)c(C)c4)nc3-c3ccc(F)cc3)CC2=O)c1` [Example 7.01.24] it was 90 nM; in that of `Cc1cc(-c2cn(CC(=O)N3CCN(c4cc(F)ccn4)C(=O)C3)c(-c3ccc(F)cc3)n2)ccc1F` [Example 7.01.25], 42 nM. `Cc1cc(-c2cn(CC(=O)N3CCN(c4ccccn4)C(=O)C3)c(-c3ccc(F)cc3)n2)ccc1F` [Example 7.01.26]: the EC50 is 44 nM. In the case of `Cc1cc(-c2cn(CC(=O)N3CCc4nc(N)sc4C3)c(-c3ccccc3)n2)ccc1F` [Example 7.01.27], the EC50 is 172 nM.

With `CC(=O)Nc1nc2c(s1)CCN(C(=O)Cn1cc(-c3ccc(F)c(C)c3)nc1-c1ccccc1)CC2` [Example 7.01.28], the EC50 came out at 769 nM.

Take `Cc1nc2c(o1)CCN(C(=O)Cn1cc(-c3ccc(F)c(C)c3)nc1-c1ccccc1)CC2` [Example 7.01.29]: the EC50 is 162 nM.

On to `Cc1cc(-c2cn(CC(=O)N3CCc4ncsc4CC3)c(-c3ccccc3)n2)ccc1F` [Example 7.01.30], for which the EC50 was determined as 150 nM.

Take `Cc1nc2c(s1)CN(C(=O)Cn1cc(-c3ccc(F)c(C)c3)nc1-c1ccccc1)CC2` [Example 7.01.31]: the EC50 was found to be 108 nM. The result for `Cc1nc2c(o1)CCN(C(=O)Cn1cc(-c3ccc(F)c(C)c3)nc1-c1ccccc1)C2` [Example 7.01.32] reads 61 nM; that for `Cc1nc2c(o1)CN(C(=O)Cn1cc(-c3ccc(F)c(C)c3)nc1-c1ccccc1)C2` [Example 7.01.33], 127 nM; that for `Cc1nc2c(o1)CN(C(=O)Cn1cc(-c3ccc(F)c(C)c3)nc1-c1ccc(F)cc1)C2` [Example 7.01.34], 101 nM.
